The results in this text go back to patent US8017775B2, “1-2-dihydroquinoline derivative having glucocorticoid receptor binding activity” (Santen Pharmaceutical Co., Ltd., priority 2005, dated 2011).

Some results are limits rather than exact numbers.

The target of the assay is T1, Recombinant human GR (Homo sapiens, UniProt P04150).
T1 construct: purchased Invitrogen P2816
T1 sequence (P04150 1-777): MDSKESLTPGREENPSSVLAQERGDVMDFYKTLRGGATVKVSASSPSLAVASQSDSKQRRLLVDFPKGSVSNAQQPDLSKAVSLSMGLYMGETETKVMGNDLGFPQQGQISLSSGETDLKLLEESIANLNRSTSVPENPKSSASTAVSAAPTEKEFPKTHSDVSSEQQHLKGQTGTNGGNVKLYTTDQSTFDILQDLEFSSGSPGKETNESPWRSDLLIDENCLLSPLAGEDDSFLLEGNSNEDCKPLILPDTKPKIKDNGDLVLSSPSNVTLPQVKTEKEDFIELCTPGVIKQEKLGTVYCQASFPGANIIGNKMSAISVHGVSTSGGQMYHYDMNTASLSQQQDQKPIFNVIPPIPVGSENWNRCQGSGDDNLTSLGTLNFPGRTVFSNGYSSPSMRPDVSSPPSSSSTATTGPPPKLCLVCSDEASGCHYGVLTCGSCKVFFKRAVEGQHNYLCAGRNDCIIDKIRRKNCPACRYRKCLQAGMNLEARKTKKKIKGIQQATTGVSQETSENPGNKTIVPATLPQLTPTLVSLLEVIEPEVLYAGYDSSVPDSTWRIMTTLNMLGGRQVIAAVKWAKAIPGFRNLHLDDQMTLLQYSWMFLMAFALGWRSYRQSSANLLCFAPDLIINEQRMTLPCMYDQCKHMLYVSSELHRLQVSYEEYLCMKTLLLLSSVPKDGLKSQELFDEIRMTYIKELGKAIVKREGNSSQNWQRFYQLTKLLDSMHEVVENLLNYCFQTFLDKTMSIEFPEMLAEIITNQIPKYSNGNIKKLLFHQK
Description: GR competitor assay by fluorescence polarization (GR binding ratio). The note with it: positive control 2 mM dexamethasone, a GR binding ratio of 100% or more is indicated by 100%. In general terms: Polarisation of emitted light reports the rotation of a fluorescent probe.

Consider `C=CCc1ccccc1OCc1c(-c2cc(C)ccc2OC)ccc2c1C(C)=CC(C)(C)N2` [Compound 14-21, 5-(2-Allylphenoxymethyl)-6-(2-methoxy-5-methylphenyl)-2,2,4-trimethyl-1,2-dihydroquinoline], for which the “GR Binding ratio (%)” value was 99%.

For `COc1cc(F)ccc1-c1ccc2c(c1COc1ccccc1CCO)C(C)=CC(C)(C)N2` [Compound 3-68, 6-(4-Fluoro-2-methoxyphenyl)-5-[2(2-hydroxyethyl)phenoxymethyl)-2,2,4-trimethyl-1,2-dihydroquinoline], the “GR Binding ratio (%)” value was at least 100%.

Turning to `COc1ccc(C(F)(F)F)cc1-c1ccc2c(c1COC(=O)c1ccc(C)s1)C(C)=CC(C)(C)N2` [Compound 12-73, 6-(2-Methoxy-5-trifluoromethylphenyl)-5-(5-methylthiophen-2-ylcarbonyloxymethyl)-2,2,4-trimethyl-1,2-dihydroquinoline], the “GR Binding ratio (%)” value was at least 100%.

In the case of `COc1cc(F)c(F)cc1-c1ccc2c(c1COc1cc(F)ccc1C)C(C)=CC(C)(C)N2` [Compound 3-57, 6-(4,5-Difluoro-2-methoxyphenyl)-5-(5-fluoro-2-methylphenoxymethyl)-2,2,4-trimethyl-1,2-dihydroquinoline], the “GR Binding ratio (%)” value amounted to 98%.

Turning to `COc1ccc(C)cc1-c1ccc2c(c1COc1cc(F)ccc1C)C(C)=CC(C)(C)N2` [Compound 14-11, 5-(5-Fluoro-2-methylphenoxymethyl)-6-(2-methoxy-5-methylphenyl)-2,2,4-trimethyl-1,2-dihydroquinoline], the “GR Binding ratio (%)” value is reported as at least 100%.

For `CCc1ccccc1OCc1c(-c2ccc(F)cc2OC)ccc2c1C(C)=CC(C)(C)N2` [Compound 3-33, 5-(2-Ethylphenoxymethyl)-6-(4-fluoro-2-methoxyphenyl)-2,2,4-trimethyl-1,2-dihydroquinoline], the “GR Binding ratio (%)” value was at least 100%.

Regarding `CCc1cccc(NCc2c(-c3ccc(F)cc3OC)ccc3c2C(C)=CC(C)(C)N3)c1` [Compound 6-40, 5-(3-Ethylphenylaminomethyl)-6-(4-fluoro-2-methoxyphenyl)-2,2,4-trimethyl-1,2-dihydroquinoline], the “GR Binding ratio (%)” value came out at 99%.

`COc1ccc(F)cc1-c1ccc2c(c1COc1cc(F)ccc1C)C(C)=CC(C)(C)N2` [Compound 14-43, 6-(5-Fluoro-2-methoxyphenyl)-5-(5-fluoro-2-methylphenoxymethyl)-2,2,4-trimethyl-1,2-dihydroquinoline]: the “GR Binding ratio (%)” value is at least 100%.

As for `COc1cc(F)ccc1-c1ccc2c(c1COc1cc(C=O)ccc1C)C(C)=CC(C)(C)N2` [Compound 3-94, 6-(4-Fluoro-2-methoxyphenyl)-5-(5-formyl-2-methylphenoxymethyl)-2,2,4-trimethyl-1,2-dihydroquinoline], the “GR Binding ratio (%)” value is at least 100%.

In the case of `COc1ccccc1NCc1c(-c2cc(C)ccc2OC)ccc2c1C(C)=CC(C)(C)N2` [Compound 6-76, 6-(2-Methoxy-5-methylphenyl)-5-(2-methoxyphenylaminomethyl)-2,2,4-trimethyl-1,2-dihydroquinoline], the “GR Binding ratio (%)” value is listed as at least 100%.

As to `C=CCc1ccccc1OCc1c(-c2ccc(F)cc2OC)ccc2c1C(C)=CC(C)(C)N2` [Compound 3-74, 6-(4-Fluoro-2-methoxyphenyl)-5-(2-allylphenoxymethyl)-2,2,4-trimethyl-1,2-dihydroquinoline], the “GR Binding ratio (%)” value is given as at least 100%.

As to `COc1ccccc1NCc1c(-c2ccc(F)cc2OC)ccc2c1C(C)=CC(C)(C)N2` [Compound 6-20, 6-(4-Fluoro-2-methoxyphenyl)-5-(2-methoxyphenylaminomethyl)-2,2,4-trimethyl-1,2-dihydroquinoline], the “GR Binding ratio (%)” value was at least 100%.
